Measured values from patent publication US11286252B2, “Alkene spirocyclic compounds as farnesoid X receptor modulators” (BRISTOL-MYERS SQUIBB COMPANY, priority 2017, dated 2022).

Target: T1, human FXR (Homo sapiens, UniProt Q96RI1)
T1 construct: expressed in transfected cells; host or cells: HEK293 cells stably carrying a 5xGal4-response-element firefly luciferase reporter, transiently transfected with pcDNA3.1-Gal4-FXR
T1 sequence (Q96RI1 262-486 limits assumed): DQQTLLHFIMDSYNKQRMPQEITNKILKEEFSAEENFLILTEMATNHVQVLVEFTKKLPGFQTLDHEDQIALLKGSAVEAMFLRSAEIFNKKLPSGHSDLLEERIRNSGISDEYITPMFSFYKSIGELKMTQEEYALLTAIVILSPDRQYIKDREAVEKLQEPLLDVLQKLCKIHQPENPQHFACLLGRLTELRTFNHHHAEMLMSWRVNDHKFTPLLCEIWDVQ
Experiment: transient human FXR/Gal4-luciferase reporter assay
Assay type: cell-based
Settings: Gal4-hFXR fusion construct, luciferase reporter HEK293 cells; response relative to 8 μM GW-4064; unit inferred
Protocol: The exemplified compounds of the present invention were tested in the transient human FXR/Gal4-luciferase reporter assay, and assay results were reported in Table 1 and Examples 1 to 3 together with other analytical data.
A Gal4-hFXR fusion construct reporter system was used as the primary assay to characterize compound activity. A construct including 5 copies of the Gal4 promoter response element upstream of a firefly luciferase reporter cDNA was stably expressed in HEK293 cells. This reporter cell line was maintained in Dulbecco's Modified Eagle's medium (DMEM; Gibco) supplemented with 1% penicillin-streptomycin (P/S) solution, 500 μg/mL Zeocin and 10% charcoal/dextran-treated fetal bovine serum (cs-FBS) at 37° C. in a humidified 5% CO2 atmosphere. Another plasmid was constructed in which the human cytomegalovirus promoter in the pcDNA3.1 vector directs the expression of the cDNA encoding a fusion protein comprised of the DNA binding domain from the Gal4 transcription factor fused to the ligand binding domain from human FXR.
The day prior to transfection, the reporter cells in culture are detached from the plate with trypsin and plated into a T75 flask at a sufficient density to achieve approximately 90% confluence the next morning. The transfection reagents are prepared by separately diluting 25 μg of the pcDNA3.1-Gal4-FXR plasmid into 1.87 mL of Opti-MEM (Thermo-Fisher), and 40 μL of Lipofectamine 2000 (Thermo-Fisher) into 1.87 mL of Opti-MEM, and then adding the diluted DNA solution into the diluted Lipofectamine 2000 solution and incubating at room temperature for 15-20 minutes. The mixture is further diluted with 10 mL of a solution comprised of DMEM, 10% cs-FBS, and 1% P/S immediately prior to transferring to the cells. The maintenance culture media is aspirated from the cells and the final transfection mixture is added before the cells are incubated overnight at 37° C. in a humidified 5% CO2 atmosphere. This protocol can be scaled up, and the transiently transfected cells can be cryopreserved in an assay-ready format.
For compound testing, 100 nL of the compounds (serial dilutions in DMSO) are dispensed with an Echo acoustic dispenser (Labcyte) into the wells of a Corning/Costar clear bottom 384-well white plate. The transfected cells are harvested, counted, and diluted such that 10-25,000 cells in 25 μL are plated into each well of the 384-well compound assay plate. The compound-treated cells are incubated overnight at 37° C. in a humidified 5% CO2 atmosphere. The next morning 25 μL of Steady-Glo (Promega) are added to each well of the plate, the mixture is incubated for 15 min. with shaking, and luminescence is measured on an Envision (Perkin Elmer) plate reader. Background counts from cells treated with DMSO alone are subtracted from all raw counts, and the corrected values are converted to a percentage of the control response attained with 8 μM GW-4064.

SMILES	EC50 [µM]
O=C(O)c1ncc(OCC2CC3(CC(/C=C/c4c(-c5ccccc5C(F)(F)F)noc4C4CC4)C3)C2)cc1OC1CC1 (stereo not drawn) [Example 61]	0.016
Cc1cc(OCC2CC3(CC(/C=C/c4c(-c5ccccc5C(F)(F)F)noc4C4CC4)C3)C2)cnc1C(=O)O (single isomer, unassigned) [Example 31, (E)-5-((6-(2-(5-Cyclopropyl-3-(2-(trifluoromethyl)phenyl)isoxazol-4-yl)vinyl)spiro [3.3]heptan-2-yl)methoxy)-3-methylpicolinic acid]	0.139
O=C(O)c1cc(F)c2nc(N3CC4(CC(/C=C/c5c(-c6c(Cl)cncc6Cl)noc5C5CC5)C4)C3)sc2c1 [Example 10]	0.667

More lines, now with the values ahead:

EC50 [µM]	SMILES
0.137	O=C(O)c1cc(C(F)(F)F)c2cc(N3CC4(CC(/C=C/c5c(-c6ccccc6C(F)(F)F)noc5C5CC5)C4)C3)ccc2n1 [Example 8]
0.029	CC(C)Oc1cc(C(=O)O)nc2ccc(N3CC4(CC(/C=C/c5c(-c6ccccc6C(F)(F)F)noc5C5CC5)C4)C3)cc12 [Example 12]
0.268	Cc1cc(C(=O)O)nc2sc(N3CC4(CC(/C=C/c5c(-c6ccccc6C(F)(F)F)noc5C5CC5)C4)C3)nc12 [Example 9]
